From the METLIN SMRT retention time set (Domingo-Almenara et al. 2019)

Assay: gradient 5% acetonitrile 3 min, to 50% in 2 min, to 85% in 15 min, held 3 min, 100 µL/min
Settings: column: Zorbax Extend-C18 2.1 x 50 mm; eluents: water / acetonitrile, 0.1% formic acid
Summary of the method: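 Retention times of pure standards were taken from adduct peaks that were selected by computer and manually inspected. Over 3 months, mixtures of ~100 molecules were run by HPLC–quadrupole time-of-flight mass spectrometry in positive and negative ionization mode. The Zorbax Extend-C18 column (2.1 × 50 mm, 1.8 μm) ran at 100 μL/min in water and acetonitrile, each containing 0.1% formic acid, with 40 μL dead volume and 900 μL dwell volume.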

| Structure (SMILES) | RP-LC retention time [s] |
| --- | --- |
| Cc1nc2ccn(Cc3cccnc3)c(=O)c2cc1C(=O)NCc1ccco1 | 575 |
| O=S(=O)(Cc1c(F)cccc1Cl)N1CCC(CN2CCCCCC2)CC1 | 695 |
| Cc1noc(C)c1S(=O)(=O)N1CCC(c2nn(C)c(=O)n2C2CCCC2)CC1 | 856 |
| Cc1ccc(Cn2c(N3CCCC(C(=O)NCCC4=CCCCC4)C3)nc3ccsc3c2=O)cc1 (centres undefined) | 1150 |
| Cc1ccc(-n2ccnc(NC(=O)Nc3ccc(F)cc3)c2=O)cc1C | 1030 |
| O=C(c1ccc2cc[nH]c2c1)N1C[C@@H]2C[C@H]1C[C@@H]2NS(=O)(=O)c1ccccc1 | 766 |
| CCCn1c(=O)sc2cc(S(=O)(=O)N3CCC(C(=O)Nc4ccc(CC)cc4)CC3)ccc21 | 929 |
| COC[C@@H]1CN(S(=O)(=O)c2ccc(C#N)cc2)C[C@H]1c1ccccn1 | 746 |
| COc1cccc(CNC2=NCCNC23CCN(S(=O)(=O)c2ccc(C(C)C)cc2)CC3)c1 | 836 |
| O=C(Nc1ccc(S(=O)(=O)Nc2nccs2)cc1)c1ccc([N+](=O)[O-])o1 | 641 |
| O=C(c1cccc(Br)c1)N1CCN(c2nnc3ccccn23)CC1 | 662 |
| CCn1nccc1C(=O)NC(C)(C)c1nc2c(c(C(N)=O)n1)OCO2 | 614 |
| O=C(NCc1ccccc1F)c1nc(N2CCOCC2)c2ccccc2n1 | 678 |
| Cc1ccc(CNC(=O)C2CCCN(c3nc4c(s3)c(C)nn4-c3ccc(F)cc3)C2)o1 (centres undefined) | 1100 |
| Cc1oc(C2CCN(C(=O)c3ccc(F)c(Cl)c3)CC2)nc1C(=O)N1CCCCC1 | 868 |
| O=C(NC1CC1)[C@@H]1C[C@H](Oc2cccnc2)CN1C(=O)c1ccsc1 | 630 |
| Cc1ccc(CC(=O)N2CCC3(CC2)NC(=O)c2cccc(Cl)c2N3)cc1 | 812 |
| CCCNC(=O)Cn1cc(C(=O)Nc2cc(C)cc(C)c2)c(=O)c2ccc(C)nc21 | 982 |
| CC(C)CNC(=O)c1nnn2c1COC(c1ccc(Br)cc1)C2 (centres undefined) | 973 |
| O=C(c1cccs1)N1CCc2ccc(NS(=O)(=O)C3CCCCC3)cc21 | 892 |
| Cc1ccc2c(Nc3ccccc3Cl)c(-c3nc(C)no3)cnc2n1 | 821 |
| COc1ccccc1NC(=O)N1C[C@@H]2CN(S(=O)(=O)c3ccc(C)cc3)C[C@H](C1)O2 | 836 |

| Structure (SMILES) | RP-LC retention time [s] |
| --- | --- |
| O=C(CN1C(=O)CCCc2cc(S(=O)(=O)N3CCCCCC3)ccc21)NCc1ccc(F)cc1 | 919 |
| O=C(Cn1nc2n(c1=O)CCCCC2)N1CCN(c2ccc(F)cc2)CC1 | 701 |
| Cc1ccc(S(=O)(=O)N2CC(C(=O)NC3CCCC3)Oc3ccc(C)cc32)cc1 (centres undefined) | 1140 |
| CCc1sc(NC(=O)c2cc3c([nH]c2=O)CC(C)(C)CC3=O)nc1-c1ccc(C)c(C)c1 | 1150 |
| Cc1ccsc1CN1CC(Oc2ccccc2C(=O)NC2CC2)C1 | 615 |
| CCCc1noc(-c2nnn3c2COC(c2ccc(OC)cc2)C3)n1 (centres undefined) | 1010 |
| COc1ccc(NC(=O)Cn2cc(C(=O)C3CC3)c3ccccc32)cc1 | 864 |
| Cc1noc(C)c1-c1ccc(S(=O)(=O)NCc2ccccc2)cc1 | 916 |
| CC1CCN(CCNC(=O)c2nnc(-c3ccc(S(=O)(=O)N4CCCCC4)cc3)o2)CC1 | 663 |
| COc1ccc(NC(=O)N(C)CCc2noc(COc3ccccc3)n2)cc1OC | 788 |
| Cc1cccc2c(C(N)=O)cc(N3CCCC3)nc12 | 570 |
| Cn1c(=O)c2ccn(CC(=O)N3CCN(c4ccc(F)cc4)CC3)c2n(C)c1=O | 683 |
| CC(C)CNC(=O)c1ccc2nc(CCc3ccc(NC(=O)C(C)C)cc3)[nH]c2c1 | 644 |
| Cc1cccc(NC(=O)N2CCC(c3nc(C(=O)N(C)C)c(C)o3)CC2)c1C | 697 |
| CC(C)(C)C(O)CCNC(=O)Nc1ccc2c(c1)OCO2 (centres undefined) | 690 |
| Cc1ccc(-c2cc(C(=O)N(C)Cc3ccccc3)c(C)[nH]2)cc1C | 1040 |
| CCc1nccn1Cc1nc(-c2ccccc2F)no1 | 603 |
| CCCN(CCC)c1nc(-c2ccccc2F)nc2ccccc12 | 814 |
| CCOC(=O)c1nnc2c(-c3ccc(F)cc3)c(C)nn2c1C | 986 |
| CCc1nnc2cc(N3CCN(C(=O)Nc4cccc(F)c4)CC3)cnn12 | 655 |
| N#Cc1cccc(NC(=O)CN2C(=O)NC(c3ccc(Cl)cc3)C3=C2COC3=O)c1 (centres undefined) | 763 |
| CC(=O)Nc1ccc(SCC(=O)N(C(C)C)C(C)C)nn1 | 675 |
